Measured values taken from ChEMBL document CHEMBL1142079, “Quinoline derivative MC1626, a putative GCN5 histone acetyltransferase (HAT) inhibitor, exhibits HAT-independent activity against Toxoplasma gondii” (2007).
Calls of active or inactive are those of the source. The calls are words filed in the database; no cut-off is given here.

How the values were obtained:
[1] = target: Histone acetyltransferase GCN5 (Saccharomyces cerevisiae S288c) (UniProt Q03330); assay: Inhibition of Saccharomyces cerevisiae recombinant GCN5 assessed as histone H3 acetylation
Toxoplasma gondii [2] = assay: Decrease in acetylated histone H3 levels in Toxoplasma gondii tachyzoites after 3 days by immunoblotting; assay type: functional, organism-based
Toxoplasma gondii [3] = assay: Inhibition of Toxoplasma gondii in human foreskin fibroblasts at 100 uM relative to DMSO; assay type: functional
Toxoplasma gondii [4] = assay: Inhibition of Toxoplasma gondii in human foreskin fibroblasts relative to DMSO; assay type: functional, organism-based
Toxoplasma gondii [5] = assay: Effect on apicoplasts in Toxoplasma gondii at 200 uM by DAPI staining relative to DMSO; assay type: functional

Chain of Histone acetyltransferase GCN5 (Saccharomyces cerevisiae S288c) (Q03330 whole entry): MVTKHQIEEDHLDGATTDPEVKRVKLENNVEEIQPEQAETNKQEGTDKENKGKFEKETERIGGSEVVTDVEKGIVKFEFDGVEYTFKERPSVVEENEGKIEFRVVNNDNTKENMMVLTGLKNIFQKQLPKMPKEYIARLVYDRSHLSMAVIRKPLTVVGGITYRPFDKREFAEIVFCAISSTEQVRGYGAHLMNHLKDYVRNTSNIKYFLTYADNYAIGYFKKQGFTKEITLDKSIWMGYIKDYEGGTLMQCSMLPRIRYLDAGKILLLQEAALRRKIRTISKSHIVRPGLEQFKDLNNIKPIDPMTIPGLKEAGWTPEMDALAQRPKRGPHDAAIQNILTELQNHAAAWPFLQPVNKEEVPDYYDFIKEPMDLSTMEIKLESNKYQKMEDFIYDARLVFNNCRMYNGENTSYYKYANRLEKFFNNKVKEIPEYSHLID

Compound: C=CC/C=C\C/C=C\CCCCCCCc1cccc(O)c1C(=O)O
- Activity [1]: Active

Compound: CCOC(=O)c1cc2ccccc2nc1C
- Activity (Toxoplasma gondii [2]): inactive
- inhibition at 100 µM (Toxoplasma gondii [3]): 50%
- Activity (Toxoplasma gondii [4]): Dose-dependent effect
- Activity [1]: inactive
- Activity (Toxoplasma gondii [5]): 52%
